Test results: ChEMBL document CHEMBL3045108, “Advanced QSRR models of toxicological screening of basic drugs in whole blood by UPLC-TOFMS” (Med Chem Res, 2012)

test system: Blood; experiment: Drug level in Homo sapiens (human) whole blood assessed as retention time by UPLC-TOF-MS analysis

For `CC(CN1c2ccccc2Sc2ccccc21)N(C)C` (centres undefined) [PROMETHAZINE], which Retention_time is on record?
Its Retention_time is 5.7 min.

With `CCN1CCCC1CNC(=O)c1cc(S(=O)(=O)CC)c(N)cc1OC` (centres undefined) [AMISULPRIDE] as the compound, how does the Retention_time read?
Its Retention_time is 3.4 min.

`NC(=O)N1c2ccccc2CC(=O)c2ccccc21` [OXCARBAZEPINE] was tested. Which Retention_time did it give?
Its Retention_time is 5.29 min.

How did the Retention_time turn out when `NCCC(Oc1ccc(C(F)(F)F)cc1)c1ccccc1` (centres undefined) [NORFLUOXETINE] was run?
Its Retention_time is 6 min.

How did the Retention_time turn out when `CN(C)C(=O)Oc1cc(OC(=O)N(C)C)cc(C(O)CNC(C)(C)C)c1` (centres undefined) [BAMBUTEROL] was run?
Its Retention_time is 4.84 min.

`COc1ccc2c3c1O[C@H]1[C@@H](O)C=C[C@H]4[C@@H](C2)N(C)CC[C@@]341` [CODEINE] was tested. Which Retention_time did it give?
Its Retention_time is 2.5 min.

For `CNC1(c2ccccc2Cl)CCCCC1=O` (centres undefined) [KETAMINE], which Retention_time is on record?
Its Retention_time is 3.57 min.

For `CCOC(=O)C1=C(COCCN)NC(C)=C(C(=O)OC)C1c1ccccc1Cl` (centres undefined) [AMLODIPINE], which Retention_time is on record?
The Retention_time was 5.94 min.

With `CN(C)CC/C=C1/c2ccccc2Sc2ccc(Cl)cc21` [CHLORPROTHIXENE] as the compound, how does the Retention_time read?
Its Retention_time is 6.18 min.

With `CCC(Cc1ccc2c(c1)OCO2)NC` (centres undefined) as the compound, how does the Retention_time read?
Its Retention_time is 3.61 min.

For `Cc1ccccc1-n1c(C)nc2ccccc2c1=O` [METHAQUALONE], which Retention_time is on record?
Its Retention_time is 6.02 min.

For `O=C1CN=C(c2ccccn2)c2cc(Br)ccc2N1` [BROMAZEPAM], which Retention_time is on record?
The Retention_time was 5.33 min.

Which Retention_time does the source give for `CN(C)CCCN1c2ccccc2CCc2ccccc21` [IMIPRAMINE] here?
Its Retention_time is 5.81 min.

Which Retention_time does the source give for `CN(C)c1nc(N)c(C(=O)NC(=N)N)nc1Cl` here?
The Retention_time was 3.54 min.

With `Fc1ccccc1C1=NCC(=S)N(CC(F)(F)F)c2ccc(Cl)cc21` [QUAZEPAM] as the compound, how does the Retention_time read?
The Retention_time was 7.59 min.

For `Cc1ncc2n1-c1ccc(Cl)cc1C(c1ccccc1F)=NC2` [MIDAZOLAM], which Retention_time is on record?
Its Retention_time is 5.45 min.

For `CC(C)NCC(O)c1ccc(NS(C)(=O)=O)cc1` (centres undefined) [SOTALOL], which Retention_time is on record?
The Retention_time was 2.02 min.

For `COc1cc(CC(C)N)c(OC)cc1C` (centres undefined) [DOM], which Retention_time is on record?
The Retention_time was 4.67 min.

`O=C1CCc2ccc(OCCCCN3CCN(c4cccc(Cl)c4Cl)CC3)cc2N1` [ARIPIPRAZOLE] was tested. Which Retention_time did it give?
The Retention_time was 5.9 min.

For `COc1cc(CCN)c(OC)cc1Br`, which Retention_time is on record?
The Retention_time was 4.52 min.

For `CNC1=Nc2ccc(Cl)cc2C(c2ccccc2)=[N+]([O-])C1` [CHLORDIAZEPOXIDE], which Retention_time is on record?
Its Retention_time is 4.94 min.

With `COC(=O)[C@H]1[C@@H](OC(=O)c2ccccc2)C[C@@H]2CC[C@H]1N2C` [COCAINE] as the compound, how does the Retention_time read?
Its Retention_time is 4.46 min.

Which Retention_time does the source give for `COCCCC/C(=N\OCCN)c1ccc(C(F)(F)F)cc1` [FLUVOXAMINE] here?
The Retention_time was 5.91 min.

With `Cc1nnc2n1-c1ccc(Cl)cc1C(c1ccccc1Cl)=NC2` [TRIAZOLAM] as the compound, how does the Retention_time read?
Its Retention_time is 6.15 min.

How did the Retention_time turn out when `COc1ccc(C(CN(C)C)C2(O)CCCCC2)cc1` (centres undefined) [VENLAFAXINE] was run?
Its Retention_time is 5.06 min.

How did the Retention_time turn out when `O=C1C[N+]([O-])=C(c2ccccc2)c2cc(Cl)ccc2N1` [DEMOXEPAM] was run?
The Retention_time was 5.62 min.

Which Retention_time does the source give for `COc1ccc(N2CCNCC2)cc1` here?
Its Retention_time is 2.59 min.

Which Retention_time does the source give for `CCOC(=O)C1=C(C)NC(C)=C(C(=O)OC)C1c1cccc(Cl)c1Cl` (centres undefined) [FELODIPINE] here?
Its Retention_time is 7.44 min.

`Cc1nnc2n1-c1ccc(Cl)cc1C(c1ccccc1)=NC2` [ALPRAZOLAM] was tested. Which Retention_time did it give?
Its Retention_time is 6.09 min.

How did the Retention_time turn out when `C#CCN(C)[C@H](C)Cc1ccccc1` [SELEGILINE] was run?
Its Retention_time is 3.55 min.

Which Retention_time does the source give for `CCCCc1nc(Cl)c(CO)n1Cc1ccc(-c2ccccc2-c2nn[nH]n2)cc1` [LOSARTAN] here?
Its Retention_time is 6.09 min.

`Nc1nnc(-c2cccc(Cl)c2Cl)c(N)n1` [LAMOTRIGINE] was tested. Which Retention_time did it give?
The Retention_time was 3.78 min.

With `O=C1CN=C(c2ccccc2Cl)c2cc(Br)ccc2N1` [PHENAZEPAM] as the compound, how does the Retention_time read?
Its Retention_time is 6.45 min.

For `CCN(C(C)=O)c1cccc(-c2ccnc3c(C#N)cnn23)c1` [ZALEPLON], which Retention_time is on record?
Its Retention_time is 5.68 min.

`CN1CC[C@]23CCCC[C@H]2[C@H]1Cc1ccc(O)cc13` [LEVORPHANOL] was tested. Which Retention_time did it give?
The Retention_time was 3.82 min.

How did the Retention_time turn out when `CCN(CC)CCN1C(=O)CN=C(c2ccccc2F)c2cc(Cl)ccc21` [FLURAZEPAM] was run?
The Retention_time was 5.53 min.

For `CN[C@@H](C)[C@@H](O)c1ccccc1` [PSEUDOEPHEDRINE], which Retention_time is on record?
Its Retention_time is 2.28 min.

Which Retention_time does the source give for `Cc1ccc(-c2nc3ccc(C)cn3c2CC(=O)N(C)C)cc1` [ZOLPIDEM] here?
Its Retention_time is 4.78 min.

With `OCCOCCN1CCN(C2=Nc3ccccc3Sc3ccccc32)CC1` [QUETIAPINE] as the compound, how does the Retention_time read?
Its Retention_time is 5.35 min.

For `CN1C(=O)CN=C(c2ccccc2F)c2cc(N)ccc21` [7-AMINO-FLUNITRAZEPAM], which Retention_time is on record?
The Retention_time was 4.02 min.

Which Retention_time does the source give for `CCN1CCCC1CNC(=O)c1cc(S(N)(=O)=O)ccc1OC` (centres undefined) [SULPIRIDE] here?
The Retention_time was 2.21 min.

How did the Retention_time turn out when `c1cc2c(c(N3CCNCC3)c1)OCCO2` [ELTOPRAZINE] was run?
The Retention_time was 4.9 min.

With `Cc1cccc(C)c1NC(=O)C1CCCCN1C` (centres undefined) [MEPIVACAINE] as the compound, how does the Retention_time read?
The Retention_time was 3.46 min.

With `O=C(NCCN1CCOCC1)c1ccc(Cl)cc1` [MOCLOBEMIDE] as the compound, how does the Retention_time read?
Its Retention_time is 3.39 min.

How did the Retention_time turn out when `COc1cc2nc(N3CCN(C(=O)C4COc5ccccc5O4)CC3)nc(N)c2cc1OC` (centres undefined) [DOXAZOSIN] was run?
The Retention_time was 5.43 min.

Which Retention_time does the source give for `OC(CCN1CCCC1)(c1ccccc1)C1CCCCC1` (centres undefined) [PROCYCLIDINE] here?
Its Retention_time is 5.78 min.

With `COc1ccc(CC(C)N)cc1` (centres undefined) [PARA-METHOXYAMPHETAMINE] as the compound, how does the Retention_time read?
Its Retention_time is 2.91 min.

For `COc1ccc(CN(CCN(C)C)c2ccccn2)cc1` [PYRILAMINE], which Retention_time is on record?
Its Retention_time is 4.57 min.

For `CNCCCC1(c2ccc(F)cc2)OCc2cc(C#N)ccc21` (centres undefined), which Retention_time is on record?
The Retention_time was 5.47 min.

How did the Retention_time turn out when `Nc1ccc2c(c1)C(c1ccccc1Cl)=NCC(=O)N2` [7-AMINOCLONAZEPAM] was run?
Its Retention_time is 3.39 min.

How did the Retention_time turn out when `CN(C)CCCC1(c2ccc(F)cc2)OCc2cc(C#N)ccc21` (centres undefined) [CITALOPRAM] was run?
The Retention_time was 5.53 min.

`CN(C)CCc1c[nH]c2ccc(C[C@H]3COC(=O)N3)cc12` [ZOLMITRIPTAN] was tested. Which Retention_time did it give?
Its Retention_time is 2.7 min.

With `O=C1Nc2ccc(Cl)cc2C(c2ccccc2Cl)=NC1O` (centres undefined) [LORAZEPAM] as the compound, how does the Retention_time read?
The Retention_time was 6.02 min.

With `CN1CC[C@]23c4c5ccc(O)c4O[C@H]2C(=O)CC[C@H]3[C@H]1C5` [HYDROMORPHONE] as the compound, how does the Retention_time read?
The Retention_time was 1.84 min.

`OCCOCCN1CCN(C(c2ccccc2)c2ccc(Cl)cc2)CC1` (centres undefined) [HYDROXYZINE] was tested. Which Retention_time did it give?
Its Retention_time is 5.91 min.

Which Retention_time does the source give for `Clc1ccc2c(c1)C(c1ccccc1)=NCc1nncn1-2` [ESTAZOLAM] here?
Its Retention_time is 5.95 min.

`CN1CCN2c3ncccc3Cc3ccccc3C2C1` (centres undefined) [MIRTAZAPINE] was tested. Which Retention_time did it give?
The Retention_time was 3.91 min.

`CCOC(=O)[C@H](CCc1ccccc1)N[C@@H](C)C(=O)N1CCC[C@H]1C(=O)O` was tested. Which Retention_time did it give?
Its Retention_time is 5.23 min.

How did the Retention_time turn out when `CN1CCN2c3ccccc3Cc3ccccc3C2C1` (centres undefined) [MIANSERIN] was run?
Its Retention_time is 5.48 min.

How did the Retention_time turn out when `OCc1cc(C(O)CNCCCCCCOCCCCc2ccccc2)ccc1O` (centres undefined) [SALMETEROL] was run?
The Retention_time was 6.14 min.

For `CN[C@@H](C)Cc1ccccc1` [METHAMPHETAMINE], which Retention_time is on record?
Its Retention_time is 2.86 min.

Which Retention_time does the source give for `Cc1ccc(/C(=C\CN2CCCC2)c2cccc(/C=C/C(=O)O)n2)cc1` [ACRIVASTINE] here?
The Retention_time was 5.64 min.

Which Retention_time does the source give for `CC(N)Cc1ccccc1` (centres undefined) [AMPHETAMINE] here?
Its Retention_time is 2.6 min.

With `C[C@@H](Cc1ccccc1)N(C)Cc1ccccc1` [BENZPHETAMINE] as the compound, how does the Retention_time read?
Its Retention_time is 5.24 min.

With `Clc1cccc(Cl)c1N=C1NCCN1` [CLONIDINE] as the compound, how does the Retention_time read?
Its Retention_time is 2.44 min.

Which Retention_time does the source give for `Clc1cccc(N2CCNCC2)c1` [CHLOROPHENYLPIPERAZINE] here?
Its Retention_time is 4.08 min.

`CN1C(=O)CC(=O)N(c2ccccc2)c2cc(Cl)ccc21` [CLOBAZAM] was tested. Which Retention_time did it give?
The Retention_time was 6.28 min.

Which Retention_time does the source give for `CCCCNC(=O)NS(=O)(=O)c1ccc(C)cc1` [TOLBUTAMIDE] here?
The Retention_time was 6.16 min.

How did the Retention_time turn out when `CCOC(=O)c1ncn2c1CN(C)C(=O)c1cc(F)ccc1-2` [FLUMAZENIL] was run?
The Retention_time was 5.13 min.
